The text below walks through data of US12122782B2, “Crystalline forms of 8-(2-fluorobenzyl)-6-(3-(trifluoromethyl)-1H-1,2,4-triazol-5-yl)imidazo[1,2-a]pyrazine as sGC stimulators” (Tisento Therapeutics Inc., priority 2018, dated 2024).

The series in a line: Dynamic vapor sorption (DVS) adsorption/desorption. The format is physicochemical. As to conditions: up to 95% RH; isothermal at 25° C.; water as solvent. As for the experimental part:
The Adsorption/Desorption determination was performed using a Q5000 V3.3 TGA-SA instrument. […] The ramp was isothermal at 25° C. Water was used as the solvent for all DVS analysis. The data was analyzed with the Universal Analysis 2000 software.

In the case of `Fc1ccccc1Cc1nc(-c2nc(C(F)(F)F)n[nH]2)cn2ccnc12` [Form A, 8-(2-fluorobenzyl)-6-(3-(trifluoromethyl)-1H-1,2,4-triazol-5-yl)imidazo[1,2-a]pyrazine], the “moisture picked up (DVS)” value is “less than 0.4%”.
